In publication PMC5444726, “A CD44-specific peptide, RP-1, exhibits capacities of assisting diagnosis and predicting prognosis of gastric cancer” (Oncotarget, 2017):

What was measured:
[1] = tested on: CD44 in gastric carcinoma and surrounding tissues; assay: Immunohistochemistry of human gastric cancer tissue microarray; conditions: for RP-1 staining negative, number (%) / RP-1 staining positive, number (%): % of all 100 cases
Procedure: Prepared paraffin-embedded sections were deparaffinized, rehydrated, retrieved and blocked with 5% BSA (w/v) in PBS at ambient temperature for 30 min. Then, sections were incubated with 100 μM biotin labeled RP-1 peptide or human specific rabbit anti-CD44 monoclonal antibody (1:200, ZSGB-BIO, Beijing, China) overnight at 4°C. After PBS washing for three times, sections were subsequently incubated with streptavidin-HRP (1:500, Proteintech, Wuhan, China) and goat anti-rabbit secondary antibody (1:300, BOSTER, Wuhan, China). Diaminobenzidine (DAB, ZSGB-BIO, Beijing, China) was used as a chromogen. Finally, the sections were counterstained with hematoxylin and mounted with neutral balsam.
Two TMA slides (Shanghai Outdo Biotech Co LTD, Shanghai, China), each containing 100 GC tissues samples (including 66 adenocarcinoma, 19 tubular adenocarcinoma, 8 mucinous adenocarcinoma, 2 undifferentiated carcinoma and 5 signet-ring cell carcinoma tissue samples) and 80 surrounding tissue samples from 100 patients, were used to evaluate the diagnostic and prognostic effects of RP-1. Samples were obtained from treatment-naive patients with written informed consent signed and dated. Age of the 100 patients with GC ranged from 32 to 81 years (mean, 64.4 years). Their clinicopathological characteristics were described in Table 2. The TNM stage of all patients with GC was assessed according to the American Joint Commission for Cancer (AJCC 7th edition) and tumors were histologically classified according to the criteria described by the World Health Organization (2000). The Medical Ethics Committee of Taizhou Hospital of Zhejiang province reviewed and approved all studies.
We performed immunohistochemical staining of TMA slides with RP-1 and human specific anti-CD44 monoclonal antibody by following the procedure described in the section Immunohistochemistry. The immunoreactivity was assessed with the immunohistochemistry score (HSCORE) system, which evaluated the staining intensity and percentages of positive cells stained at a specific magnitude of intensity. The HSCORE was calculated using the equation HSCORE=∑Pi(i) (i = 0, 1, 2, 3, Pi = 0–100%), in which i was the staining intensity (0, no staining; 1, weak staining; 2, moderate staining; 3, strong staining) and Pi was the percentage of positive cells on a scale of 0% to 100%. Positive cell count was assessed in 5 randomly selected fields of vision with a microscope (400×). All immunohistochemical evaluations were conducted by two independent pathologists […].
Receiver–operator curve (ROC) analysis was performed to determine the cut-off score for both RP-1 peptide and anti-CD44 monoclonal antibody. The score closest to the point (0.0, 1.0) with maximum sensitivity and specificity was identified as the cut-off score. Samples with a HSCORE of cut-off value or below were considered as negative staining, otherwise they were considered as positive staining.
Statistical analysis was conducted with SPSS software, version 21.0 (IBM, New York, USA). Kappa values were used to determine the consistency of histological and immunohistochemical results between RP-1 peptide and anti-CD44 antibody. Independent sample t-test was performed to decide existence of statistical difference in fluorescent intensity values between tumor and other normal organs. The ROC analysis was carried out to decide the cut-off value for RP-1 and anti-CD44 antibody. The area under the curve (AUC) was calculated to compare the diagnostic accuracy of RP-1 and anti-CD44 antibody. χ^2-test was used to assess the association between each clinicopathological variable and RP-1 staining intensity, while log-rank test was used for assessing the association between survival and each clinicopathological variable. Multiple Cox proportional hazards regression was performed to verify if RP-1 positivity can be used as an independent risk factor for prognosis of GC. […]

[2] = tested on: SGC-7901 tumor tissue; assay: Fluorescence microscopy of frozen xenograft sections after injection; format: in vivo, athymic nude mice; conditions: 3 h after i.v. injection of peptide
Procedure: Once fluorescence signal reached its peak at the site of tumor, subcutaneous tumor tissues were harvested for further experiment. After shock-frozen with liquid nitrogen, tumor tissues were cut into 5 μm sections and fixed in 4% paraformaldehyde at ambient temperature for 30 min. The coverslips were mounted with glycerol–gelatin containing anti-fading buffer (Bioworld, Minnesota, USA). Finally, the fluorescence images of frozen sections were captured with a fluorescent microscope (Nikon-Eclipse, Tokyo, Japan)

[3] = adenocarcinoma, 66 cases, P = 0.182
[4] = age > 64.4, 46 cases, P = 0.036
[5] = age ≤ 64.4, 54 cases, P = 0.036
[6] = all antibody results, total 100
[7] = clinicopathological stage I, 10 cases, P = 0.526
[8] = clinicopathological stage II, 32 cases, P = 0.526
[9] = clinicopathological stage III, 50 cases, P = 0.526
[10] = clinicopathological stage IV, 8 cases, P = 0.526
[11] = moderately differentiated, 69 cases, P = 0.066
[12] = mucinous adenocarcinoma, 8 cases, P = 0.182
[13] = poorly differentiated, 5 cases, P = 0.066
[14] = signet ring cell carcinoma, 4 cases, P = 0.182
[15] = tubular adenocarcinoma, 19 cases, P = 0.182
[16] = undifferentiated carcinoma, 3 cases, P = 0.182
[17] = well differentiated, 26 cases, P = 0.066

Sequence: WHPWSYLWTQQA [RP-1, CD44-specific peptide … screened from a 12-mer phage peptide library]
- RP-1 staining negative, number (%) [1, 3]: 16 (16.0)
- RP-1 staining positive, number (%) [1, 3]: 50 (50.0)
- RP-1 staining negative, number (%) [1, 4]: 12 (12.0)
- RP-1 staining positive, number (%) [1, 4]: 34 (34.0)
- RP-1 staining negative, number (%) [1, 5]: 15 (15.0)
- RP-1 staining positive, number (%) [1, 5]: 39 (39.0)
- number of pericarcinomatous tissues RP-1 negative ([1]; all antibody results, total 80): 70
- number of pericarcinomatous tissues RP-1 positive ([1]; all antibody results, total 80): 10
- number of gastric carcinoma tissues RP-1 negative [1, 6]: 27
- number of gastric carcinoma tissues RP-1 positive [1, 6]: 73
- number of gastric carcinoma tissues RP-1 negative ([1]; antibody negative): 18
- number of gastric carcinoma tissues RP-1 positive ([1]; antibody negative): 18
- number of pericarcinomatous tissues RP-1 negative ([1]; antibody negative): 56
- number of pericarcinomatous tissues RP-1 positive ([1]; antibody negative): 9
- number of gastric carcinoma tissues RP-1 negative ([1]; antibody positive): 9
- number of gastric carcinoma tissues RP-1 positive ([1]; antibody positive): 55
- number of pericarcinomatous tissues RP-1 negative ([1]; antibody positive): 14
- number of pericarcinomatous tissues RP-1 positive ([1]; antibody positive): 1
- RP-1 staining negative, number (%) [1, 7]: 4 (4.0)
- RP-1 staining positive, number (%) [1, 7]: 6 (6.0)
- RP-1 staining negative, number (%) [1, 8]: 10 (10.0)
- RP-1 staining positive, number (%) [1, 8]: 22 (22.0)
- RP-1 staining negative, number (%) [1, 9]: 12 (12.0)
- RP-1 staining positive, number (%) [1, 9]: 38 (38.0)
- RP-1 staining negative, number (%) [1, 10]: 1 (1.0)
- RP-1 staining positive, number (%) [1, 10]: 7 (7.0)
- RP-1 staining negative, number (%) ([1]; died, 69 cases, P < 0.001): 11 (11.0)
- RP-1 staining positive, number (%) ([1]; died, 69 cases, P < 0.001): 58 (58.0)
- RP-1 staining negative, number (%) ([1]; female, 36 cases, P = 0.895): 10 (10.0)
- RP-1 staining positive, number (%) ([1]; female, 36 cases, P = 0.895): 26 (26.0)
- RP-1 staining negative, number (%) ([1]; male, 64 cases, P = 0.895): 17 (17.0)
- RP-1 staining positive, number (%) ([1]; male, 64 cases, P = 0.895): 47 (47.0)
- RP-1 staining negative, number (%) [1, 11]: 21 (21.0)
- RP-1 staining positive, number (%) [1, 11]: 53 (53.0)
- RP-1 staining negative, number (%) [1, 12]: 5 (5.0)
- RP-1 staining positive, number (%) [1, 12]: 3 (3.0)
- RP-1 staining negative, number (%) ([1]; pM0, 91 cases, P = 0.260): 26 (26.0)
- RP-1 staining positive, number (%) ([1]; pM0, 91 cases, P = 0.260): 65 (65.0)
- RP-1 staining negative, number (%) ([1]; pM1, 9 cases, P = 0.260): 1 (1.0)
- RP-1 staining positive, number (%) ([1]; pM1, 9 cases, P = 0.260): 8 (8.0)
- RP-1 staining negative, number (%) ([1]; pN0, 27 cases, P = 0.101): 6 (6.0)
- RP-1 staining positive, number (%) ([1]; pN0, 27 cases, P = 0.101): 21 (21.0)
- RP-1 staining negative, number (%) ([1]; pN1, 15 cases, P = 0.101): 8 (8.0)
- RP-1 staining positive, number (%) ([1]; pN1, 15 cases, P = 0.101): 7 (7.0)
- RP-1 staining negative, number (%) ([1]; pN2, 28 cases, P = 0.101): 6 (6.0)
- RP-1 staining positive, number (%) ([1]; pN2, 28 cases, P = 0.101): 22 (22.0)
- RP-1 staining negative, number (%) ([1]; pN3, 30 cases, P = 0.101): 7 (7.0)
- RP-1 staining positive, number (%) ([1]; pN3, 30 cases, P = 0.101): 23 (23.0)
- RP-1 staining negative, number (%) ([1]; pT1, 8 cases, P = 0.399): 3 (3.0)
- RP-1 staining positive, number (%) ([1]; pT1, 8 cases, P = 0.399): 5 (5.0)
- RP-1 staining negative, number (%) ([1]; pT2, 9 cases, P = 0.399): 1 (1.0)
- RP-1 staining positive, number (%) ([1]; pT2, 9 cases, P = 0.399): 6 (6.0)
- RP-1 staining negative, number (%) ([1]; pT3, 66 cases, P = 0.399): 20 (20.0)
- RP-1 staining positive, number (%) ([1]; pT3, 66 cases, P = 0.399): 45 (45.0)
- RP-1 staining negative, number (%) ([1]; pT4, 17 cases, P = 0.399): 3 (3.0)
- RP-1 staining positive, number (%) ([1]; pT4, 17 cases, P = 0.399): 17 (17.0)
- RP-1 staining negative, number (%) [1, 13]: 0 (0.0)
- RP-1 staining positive, number (%) [1, 13]: 11 (11.0)
- RP-1 staining negative, number (%) [1, 14]: 1 (1.0)
- RP-1 staining positive, number (%) [1, 14]: 4 (4.0)
- RP-1 staining negative, number (%) ([1]; survived, 31 cases, P < 0.001): 16 (16.0)
- RP-1 staining positive, number (%) ([1]; survived, 31 cases, P < 0.001): 15 (15.0)
- HSCORE of GC samples versus surrounding tissue ([1]; t-test, P < 0.001): significantly higher
- cell types stained positive ([1]; tissue microarray, gastric carcinoma and surrounding tissue): positive only in tumor cells
- RP-1 staining negative, number (%) [1, 15]: 5 (5.0)
- RP-1 staining positive, number (%) [1, 15]: 14 (14.0)
- RP-1 staining negative, number (%) [1, 16]: 0 (0.0)
- RP-1 staining positive, number (%) [1, 16]: 2 (2.0)
- RP-1 staining negative, number (%) [1, 17]: 6 (6.0)
- RP-1 staining positive, number (%) [1, 17]: 9 (9.0)
- fluorescence on tumor cells in frozen sections [2]: fluorescence signals were observed both on cell membrane and in cytoplasm
